Experiments:
[1] = target: T1, MTHFD1 recombinant human enzyme (Homo sapiens, UniProt P11586); test: MTHFD1 inhibition assay (NAD(P)H-Glo luminescence); conditions: MTHFD1 IC50, recombinant human enzyme 200 nM, NADP, band
T1 sequence (P11586 2-291 limits assumed): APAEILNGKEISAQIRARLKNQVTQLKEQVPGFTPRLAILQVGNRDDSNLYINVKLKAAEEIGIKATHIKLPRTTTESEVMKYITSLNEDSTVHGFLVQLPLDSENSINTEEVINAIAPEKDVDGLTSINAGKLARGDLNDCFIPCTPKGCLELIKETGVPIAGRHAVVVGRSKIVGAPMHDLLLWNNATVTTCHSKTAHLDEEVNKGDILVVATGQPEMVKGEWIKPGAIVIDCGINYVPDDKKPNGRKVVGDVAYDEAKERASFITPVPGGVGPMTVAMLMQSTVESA

[2] = target: T2, MTHFD2 recombinant human enzyme (Homo sapiens, UniProt P13995); test: MTHFD2 inhibition assay (NAD(P)H-Glo luminescence); conditions: for MTHFD1/MTHFD2 IC50 ratio: selectivity of MTHFD2 inhibition over MTHFD1, band
T2 sequence (P13995 36-350): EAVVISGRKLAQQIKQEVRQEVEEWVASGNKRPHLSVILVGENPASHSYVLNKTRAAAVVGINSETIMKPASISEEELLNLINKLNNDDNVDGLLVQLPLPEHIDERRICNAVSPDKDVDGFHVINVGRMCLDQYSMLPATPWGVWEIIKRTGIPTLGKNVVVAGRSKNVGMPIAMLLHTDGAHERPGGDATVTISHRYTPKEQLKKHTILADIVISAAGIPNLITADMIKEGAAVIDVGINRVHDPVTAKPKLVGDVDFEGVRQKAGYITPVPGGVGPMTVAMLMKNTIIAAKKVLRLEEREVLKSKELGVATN

human CD4+ T cells = test: Human CD4+ T-cell proliferation assay (CFSE, CD3/28 beads); conditions: read-out: Proliferation IC50

SMILES	IC50 [1]	IC50 [2]	MTHFD1/MTHFD2 IC50 ratio [2]	IC50 (human CD4+ T cells)
COC[C@H]1CN(c2cc(C)c3c4c(c(=O)oc3c2C)CN(C(=O)c2ccc(C(=O)NS(=O)(=O)N3CCC5(CC3)CC5)c(OC)c2F)CC4)CCN1C [Example 155, (R)-N-((6-azaspiro[2.5]octan-6-yl)sulfonyl)-3-fluoro-2-methoxy-4-(8-(3-(methoxymethyl)-4-methylpiperazin-1-yl)-7,10-dimethyl-5-oxo-1,3,4,5-tetrahydro-2H-chromeno[3,4-c]pyridine-3-carbonyl)benzamide]	100 to 1000 nM	10 to 100 nM		10 to 30 nM
[2H]C([2H])([2H])Oc1cc(C(=O)N2CCc3c(c(=O)oc4c(C)c(N5CCN(C)[C@@H](COC)C5)cc(Cl)c34)C2)c(F)cc1C(=O)NS(=O)(=O)N1C2CCC1CC2 [Example 326, (R)-N-((7-azabicyclo[2.2.1]heptan-7-yl)sulfonyl)-4-(10-chloro-8-(3-(methoxymethyl)-4-methylpiperazin-1-yl)-7-methyl-5-oxo-1,3,4,5-tetrahydro-2H-chromeno[3,4-c]pyridine-3-carbonyl)-5-fluoro-2-(methoxy-d3)benzamide]	1000 to 5000 nM	1 to 10 nM	J (>30)	100 to 1000 nM
CCOc1c(C(=O)NS(=O)(=O)N2C3CCC2CC3)ccc(C(=O)N2CCc3c(c(=O)oc4c(C)c(N5CCN(C)[C@@H](COC)C5)cc(C)c34)C2)c1F [Example 228]	100 to 1000 nM	10 to 100 nM	G (^ 3 to 9.0)	1 to 10 nM
COC[C@H]1CN(c2cc(C)c3c4c(c(=O)oc3c2C)CN(C(=O)c2cc(OC)c(C(=O)NS(=O)(=O)N3C5CCC3CC5)cc2F)CC4)CCN1C [Example 248, (R)-N-((7-azabicyclo[2.2.1]heptan-7-yl)sulfonyl)-5-fluoro-2-methoxy-4-(8-(3-(methoxymethyl)-4-methylpiperazin-1-yl)-7,10-dimethyl-5-oxo-1,3,4,5-tetrahydro-2H-chromeno[3,4-c]pyridine-3-carbonyl)benzamide]	100 to 1000 nM	1 to 10 nM	J (>30)	30 to 100 nM
COC[C@H]1CN(c2cc(C)c3c4c(c(=O)oc3c2C)CN(C(=O)c2cc(OC3CC3)c(C(=O)NS(=O)(=O)N3C5CCC3CC5)cc2F)CC4)CCN1C [Example 331, (R)-N-((7-azabicyclo[2.2.1]heptan-7-yl)sulfonyl)-2-cyclopropoxy-5-fluoro-4-(8-(3-(methoxymethyl)-4-methylpiperazin-1-yl)-7,10-dimethyl-5-oxo-1,3,4,5-tetrahydro-2H-chromeno[3,4-c]pyridine-3-carbonyl)benzamide]	100 to 1000 nM	1 to 10 nM	J (>30)	30 to 100 nM
COC[C@H]1CN(c2cc(C)c3c4c(c(=O)oc3c2C)CN(C(=O)c2ccc(C(=O)NS(=O)(=O)N3CCCC3)c(OC(F)(F)F)c2F)CC4)CCN1C [Example 169, (R)-3-fluoro-4-(8-(3-(methoxymethyl)-4-methylpiperazin-1-yl)-7,10-dimethyl-5-oxo-1,3,4,5-tetrahydro-2H-chromeno[3,4-c]pyridine-3-carbonyl)-N-(pyrrolidin-1-ylsulfonyl)-2-(trifluoromethoxy)benzamide]	100 to 1000 nM	10 to 100 nM	H (>9.0 to 30)	100 to 1000 nM
COC[C@H]1CN(c2cc(F)c3c4c(c(=O)oc3c2C)CN(C(=O)c2cc(N(C)C)c(C(=O)NS(=O)(=O)N3C5CCC3CC5)cc2F)CC4)CCN1C [Example 304, (R)-N-((7-azabicyclo[2.2.1]heptan-7-yl)sulfonyl)-2-(dimethylamino)-5-fluoro-4-(10-fluoro-8-(3-(methoxymethyl)-4-methylpiperazin-1-yl)-7-methyl-5-oxo-1,3,4,5-tetrahydro-2H-chromeno[3,4-c]pyridine-3-carbonyl)benzamide]	1000 to 5000 nM	10 to 100 nM		10 to 30 nM

Second part, led by results:

IC50 [1]	IC50 [2]	MTHFD1/MTHFD2 IC50 ratio [2]	SMILES	IC50 (human CD4+ T cells)
100 to 1000 nM	1 to 10 nM	H (>9.0 to 30)	COC[C@H]1CN(c2cc(C)c3c4c(c(=O)oc3c2C)CN(C(=O)c2cc(N(C)C)c(C(=O)NS(=O)(=O)N3CC[C@@H](F)C3)cc2F)CC4)CCN1C [Example 314, 2-(dimethylamino)-5-fluoro-N-(((R)-3-fluoropyrrolidin-1-yl)sulfonyl)-4-(8-((R)-3-(methoxymethyl)-4-methylpiperazin-1-yl)-7,10-dimethyl-5-oxo-1,3,4,5-tetrahydro-2H-chromeno[3,4-c]pyridine-3-carbonyl)benzamide]	1 to 10 nM
100 to 1000 nM	1 to 10 nM	J (>30)	COC[C@H]1CN(c2cc(Cl)c3c4c(c(=O)oc3c2C)CN(C(=O)c2cc(N(C)C)c(C(=O)NS(=O)(=O)N(C)C)cc2F)CC4)CCN1C [Example 260, (R)-4-(10-chloro-8-(3-(methoxymethyl)-4-methylpiperazin-1-yl)-7-methyl-5-oxo-1,3,4,5-tetrahydro-2H-chromeno[3,4-c]pyridine-3-carbonyl)-2-(dimethylamino)-N-(N,N-dimethylsulfamoyl)-5-fluorobenzamide]	10 to 30 nM
100 to 1000 nM	1 to 10 nM	J (>30)	COC[C@H]1CN(c2cc(Cl)c3c4c(c(=O)oc3c2C)CN(C(=O)c2cc(N(C)C)c(C(=O)NS(=O)(=O)N3CC[C@@H](F)C3)cc2F)CC4)CCN1C [Example 303, 4-(10-chloro-8-((R)-3-(methoxymethyl)-4-methylpiperazin-1-yl)-7-methyl-5-oxo-1,3,4,5-tetrahydro-2H-chromeno[3,4-c]pyridine-3-carbonyl)-2-(dimethylamino)-5-fluoro-N-(((R)-3-fluoropyrrolidin-1-yl)sulfonyl)benzamide]	10 to 30 nM
100 to 1000 nM	10 to 100 nM	G (^ 3 to 9.0)	COC[C@H]1CN(c2cc(C)c3c4c(c(=O)oc3c2C)CN(C(=O)c2ccc(C(=O)NS(=O)(=O)N3CCCC3)c(OC(F)F)c2F)CC4)CCN1C [Example 171, (R)-2-(difluoromethoxy)-3-fluoro-4-(8-(3-(methoxymethyl)-4-methylpiperazin-1-yl)-7,10-dimethyl-5-oxo-1,3,4,5-tetrahydro-2H-chromeno[3,4-c]pyridine-3-carbonyl)-N-(pyrrolidin-1-ylsulfonyl)benzamide]	100 to 1000 nM
100 to 1000 nM	10 to 100 nM	J (>30)	COC[C@H]1CN(c2cc(C)c3c4c(c(=O)oc3c2C)CN(C(=O)c2cc(N(C)C)c(C(=O)NS(=O)(=O)N3CCC[C@H]3C(F)(F)F)cc2F)CC4)CCN1C [Example 292, 2-(dimethylamino)-5-fluoro-4-(8-((R)-3-(methoxymethyl)-4-methylpiperazin-1-yl)-7,10-dimethyl-5-oxo-1,3,4,5-tetrahydro-2H-chromeno[3,4-c]pyridine-3-carbonyl)-N-(((S)-2-(trifluoromethyl)pyrrolidin-1-yl)sulfonyl)benzamide]	1 to 10 nM
1000 to 5000 nM	1 to 10 nM	J (>30)	COC[C@H]1CN(c2cc(Cl)c3c4c(c(=O)oc3c2C)CN(C(=O)c2cc(OC)c(C(=O)NS(=O)(=O)N3CCCC3)cc2F)CC4)CCN1C [Example 262, (R)-4-(10-chloro-8-(3-(methoxymethyl)-4-methylpiperazin-1-yl)-7-methyl-5-oxo-1,3,4,5-tetrahydro-2H-chromeno[3,4-c]pyridine-3-carbonyl)-5-fluoro-2-methoxy-N-(pyrrolidin-1-ylsulfonyl)benzamide]	30 to 100 nM
100 to 1000 nM	10 to 100 nM	H (>9.0 to 30)	COC[C@H]1CN(c2cc(C)c3c4c(c(=O)oc3c2C)CN(C(=O)c2cc(N(C)C)c(C(=O)NS(=O)(=O)N(C3CC3)C3CC3)cc2F)CC4)CCN1C [Example 276, (R)-N-(N,N-dicyclopropylsulfamoyl)-2-(dimethylamino)-5-fluoro-4-(8-(3-(methoxymethyl)-4-methylpiperazin-1-yl)-7,10-dimethyl-5-oxo-1,3,4,5-tetrahydro-2H-chromeno[3,4-c]pyridine-3-carbonyl)benzamide]	1 to 10 nM
1000 to 5000 nM	10 to 100 nM	J (>30)	COC[C@H]1CN(c2cc(Cl)c3c4c(c(=O)oc3c2C)CN(C(=O)c2cc(F)c(C(=O)NS(=O)(=O)N3CCCC3)cc2C)CC4)CCN1C [Example 310, (R)-4-(10-chloro-8-(3-(methoxymethyl)-4-methylpiperazin-1-yl)-7-methyl-5-oxo-1,3,4,5-tetrahydro-2H-chromeno[3,4-c]pyridine-3-carbonyl)-2-fluoro-5-methyl-N-(pyrrolidin-1-ylsulfonyl)benzamide]	30 to 100 nM
